US20110294874A1, “DIAGNOSIS AND THERAPY OF ORGAN DYSFUNCTION USING SPHINGANINE-1-PHOSPHATE” (The Trustees of Columbia University in the City of New York, priority 2008, published 2011)
Where “and” joins values, the source holds several entries; their conditions need not be identical. Equal entries are not always repeated.

What was measured:
[1] = tested on: C57BL/6 mice subjected to liver IR; test: Murine model of liver ischemia reperfusion (hepatic IR): plasma ALT and creatinine; assay type: in vivo, mouse; conditions: for Serum ALT (mean) / Serum creatinine (mean): C57BL/6 mice, 60 min liver ischemia, 24 h reperfusion; for Effect of pretreatment alone on kidney injury resulting from liver IR / Effect of pretreatment alone on liver injury resulting from liver IR: antagonist alone, no Sg1P; for Effect of pre-treatment on Sg1P-mediated renal and hepatic protection after liver IR: given prior to Sg1P treatment, serum creatinine and ALT
S1P1 and S1P3 receptors = conditions: cited from earlier work
[2] = tested on: SK-deficient mice subjected to liver IR; test: Liver IR in SK-deficient mice (subtype not stated); assay type: in vivo, mouse; conditions: liver IR (data not shown)
Procedure: (§1) The effects of administering Sg1P (0.1 mg/kg i.v. and 0.2 mg/kg s.c.) on liver and renal injury were also determined in the KO mice and are also shown in Tables 9 and 10 below.

[3] = tested on: C57BL/6 mice subjected to liver IR; test: Liver H&E histology after liver IR (percent necrosis, Suzuki score); assay type: in vivo, mouse; conditions: pre-treatment prior to Sg1P treatment
Procedure: Mice were anesthetized with intraperitoneal pentobarbital (50 mg/kg or to effect). Mice were placed under a heating lamp and on a 37° C. heating pad. After a midline laparotomy and intraperitoneal application of 20 U heparin, left lateral and median lobes of the liver were subjected to ischemia with a microaneurysm clip occluding the hepatic triad above the bifurcation. This method of partial hepatic ischemia results in a segmental (˜70%) hepatic ischemia but spares the right lobe of the liver and prevents mesenteric venous congestion by allowing portal decompression throughout the right and caudate lobes of the liver. The liver was then repositioned in the peritoneal cavity in its original location for 60 minutes. The liver was kept moist with gauze soaked in 0.9% normal saline. The body temperature was monitored by an infrared temperature sensor (Linear Laboratories, Fremont, Calif.) every 10 min. and maintained at 37° C. using a heating lamp and a heating pad. After 60 minutes, the liver was reperfused and the wound closed. Sham-operated mice were subjected to laparotomy and identical liver manipulations without vascular occlusion. Two, 4 and 24 hr after reperfusion, plasma was collected for the measurement of alanine aminotransferase (ALT), a common indicator of liver damage, as well as creatinine (Cr) a common indicator of kidney damage. The liver tissue subjected to IR was collected to measure percent liver necrosis (2, 4 and 24 hr after IR), neutrophil infiltration (with immunohistochemistry, 4 and 24 hr after IR), apoptosis (with terminal deoxynucleotidyl transferase-mediated dUTP nick end labeling staining, caspase 3 immunoblotting and DNA laddering, 24 hr after IR), and inflammation by RT-PCR for pro-inflammatory mRNAs (4 hr after IR).
Livers were also analyzed for the degree of hepatocellular damage using the Suzuki's criteria (Suzuki et al., Transplantation 1993, Vol. 55, pp. 1265-1272). To obtain a Suzuki score, 3 liver injury indices are graded: sinusoidal congestion (0-4), hepatocyte necrosis (0-4), and ballooning degeneration (0-4) are graded for a total score of 0-12. No necrosis, congestion, or centrilobular ballooning is given a score of 0 whereas severe congestion/ballooning and >60% lobular necrosis is given a value of 4.

[4] = tested on: C57BL/6 mice subjected to liver IR; test: Kidney H&E histology after liver IR; assay type: in vivo, mouse; conditions: pre-treatment prior to Sg1P
Text: Liver IR-induced AKI in mice shared similar histological changes observed in human AKI associated with liver failure, as observed in H&E slides of kidney sections taken from the mice (see FIG. 3). Multifocal acute tubular injury including individual cell necrosis involving the juxtamedullary proximal tubules of the S3 segment was observed. […] Endothelial apoptosis of peritubular capillaries was also visible in H&E sections as linear arrays of apoptotic bodies corresponding to the interstitial capillary lining endothelium. […] The number of glomeruli with detectable juxtaglomerular apparatus and the number of cells per juxtaglomerular apparatus were both increased after liver IR, indicating hyperplasia of the juxtaglomerular apparatus. […] Liver IR produced large necrotic areas of liver tissue. The average percentage of necrotic areas in liver samples taken from liver IR mice were 92%±2% (n=6), while no necrosis was found in sham-operated mice. Livers were also analyzed for the degree of hepatocellular damage.

[5] = tested on: SK1 KO mice subjected to liver IR; test: Liver IR in SK1 KO mice: plasma ALT and creatinine; assay type: in vivo, mouse; conditions: SK1KO, hepatic IR 24 h
Procedure: as §1

[6] = tested on: SK2 KO mice subjected to liver IR; test: Liver IR in SK2 KO mice: plasma ALT and creatinine; assay type: in vivo, mouse; conditions: SK2KO, hepatic IR 24 h
Procedure: as §1

[7] = mouse, in vivo
[8] = 0.1 mg/kg i.v. and 0.2 mg/kg s.c.

## CCCCCCCCc1cccc(NC(=O)[C@H](N)COP(=O)(O)O)c1 [VPC]
[1]
  Serum ALT (mean): 18253 U/L
  Serum creatinine (mean): 1.61 mg/dL
  Effect of pretreatment alone on kidney injury resulting from liver IR: exacerbated kidney injury
  Effect of pretreatment alone on liver injury resulting from liver IR: exacerbated liver injury
[1]; listed as VPC 23019
  Serum ALT (mean): 18253±1709 U/L
S1P1 and S1P3 receptors
  Selectivity for S1P1 (over S1P3): 50 fold

## Cc1nn(C)c2nc(NNC(=O)Nc3cc(Cl)nc(Cl)c3)cc(C(C)C)c12 [JTE-013]
[1]
  Effect of pre-treatment on Sg1P-mediated renal and hepatic protection after liver IR: did not block

## CCCCCCCCCCCC1N[C@H](C(=O)O)CS1 (some centres unmarked) [BML-241]
[1]
  Effect of pre-treatment on Sg1P-mediated renal and hepatic protection after liver IR: did not block

## CCCCCCCCCCCCCCC[C@@H](O)[C@@H](N)CO [Sphinganine, sphinganine]
[1]
  Serum ALT (mean): 7170 U/L
  Serum creatinine (mean): 0.58 mg/dL
[1]; listed as sphinganine
  Serum ALT (mean): 7170±1282 U/L
  Serum creatinine (mean): 0.58 ± 0.05 mg/dL
[2]
  Kidney protection: failed to provide kidney protection
  Protective effect on the liver: failed to provide protective effect on the liver

## CCCCCCCCc1ccc(CCC(N)(CO)CO)cc1 [FTY720]
[1]
  Serum creatinine (mean): 0.65 ± 0.06 mg/dL
[1]; liver IR, 1 mg/kg i.p. 30 min. prior to liver ischemia and 5 min prior to reperfusion, in U/L
  serum ALT: 6435±944

## pertussis toxin
[1]
  Effect of pre-treatment on Sg1P-mediated renal and hepatic protection after liver IR: prevented
[3]
  Necrotic areas in the liver after IR: increased significantly
[4]
  Effect of pre-treatment on protective effects of Sg1P on renal histology: reduced the protective effects

## COc1cccc(-c2cc(=O)c3ccccc3o2)c1N [PD98059]
[1]
  Effect of pre-treatment on Sg1P-mediated renal and hepatic protection after liver IR: prevented
[3]
  Necrotic areas in the liver after IR: increased significantly
[4]
  Effect of pre-treatment on protective effects of Sg1P on renal histology: reduced the protective effects

## CC(=N)NCCC[C@H](N)C(=O)O [L-NIO]
[1]
  Effect of pre-treatment on Sg1P-mediated renal and hepatic protection after liver IR: had no effects

## CCCCCCCCCCCCC/C=C/[C@@H](O)[C@@H](N)COP(=O)(O)O [S1P, sphingosine-1-phosphate]
[1]
  Serum ALT (mean): 9178±1822 U/L and 9178 U/L
  Serum creatinine (mean): 0.72 ± 0.13 mg/dL and 0.72 mg/dL
[5]
  Creatinine (mean): 1.035 mg/dL
[5]; [8]
  ALT (mean): 17416.67 U/L
[6]
  Creatinine (mean): 0.880 mg/dL
[6]; [8]
  ALT (mean): 13165.08 U/L
[7]
  Rescue of serum Sg1P levels: completely rescued

## CCCCCCCCCCCCC/C=C/[C@@H](O)[C@@H](N)CO [Sphingosine, sphingosine]
[1]
  Serum ALT (mean): 9269 U/L
  Serum creatinine (mean): 0.76 mg/dL
[1]; listed as sphingosine
  Serum ALT (mean): 9269±583 U/L
  Serum creatinine (mean): 0.76 ± 0.06 mg/dL

## FC(F)(F)c1cccc(-c2noc(-c3cc(-c4ccccc4)c(C(F)(F)F)s3)n2)c1 [SEW2871]
[1]
  Serum ALT (mean): 6502±552 U/L
  Serum creatinine (mean): 0.63 ± 0.08 mg/dL

## CCCCCCc1cccc(NC(=O)[C@H](N)CCP(=O)(O)O)c1 [W146]
[1]; 0.1 mg/kg (i.p.) 10 minutes prior to liver ischemia
  Inhibition of Sg1P-mediated renal and hepatic protection: completely inhibit
[1]
  Serum ALT (mean): 24452±1760 U/L and 24451 U/L
  Serum creatinine (mean): 1.6 ± 0.2 mg/dL and 1.55 mg/dL
  Effect of pretreatment alone on kidney injury resulting from liver IR: exacerbated kidney injury
  Effect of pretreatment alone on liver injury resulting from liver IR: exacerbated liver injury
[1]; pre-treatment 0.01-0.2 mg/kg
  Inhibition of Sg1P's protective effects against liver and kidney injury: dose-dependent
[3]
  Necrotic areas in the liver after IR: increased significantly
[4]
  Effect of pre-treatment on protective effects of Sg1P on renal histology: reduced the protective effects
